Measurements reported in patent US20060241078A1, “Pharmaceutical compositions comprising a contraceptive agent in solution and a teratogen” (priority 2005, published 2006).

Test: Solubility of estrogen and progestin in solubilizing agents and oils (visual, dropwise solvent addition);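 also: about 10 mg estrogen or progestin titrated with solubilizing agent or oil, added dropwise with shaking until fully dissolved, completion judged by eye under light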
[1] = solvent/oil: MAPEG 400 DO PEG ester
[2] = solvent/oil: Supernatant of soybean oil containing isotretinoin (40 mg isotretinoin particles in 1 gram of oil, particles removed by centrifugation)

Solubility (solvent/oil: Crodamol EO) | Solubility (solvent/oil: Crodamol GTCC-PN) | Solubility (solvent/oil: Crovol A40) | Solubility (solvent/oil: Ethanol) | Solubility [1] | Solubility (solvent/oil: Myvacet 9-45K) | Solubility (solvent/oil: Soybean oil) | Solubility [2] | Structure (SMILES)
14.42 mg drug/g solvent or oil | 17.94 mg drug/g solvent or oil | 15.85 mg drug/g solvent or oil | 49.46 mg drug/g solvent or oil | 9.34 mg drug/g solvent or oil | 14.47 mg drug/g solvent or oil | 6.41 mg drug/g solvent or oil | 3.92 mg drug/g solvent or oil | C#C[C@]1(OC(C)=O)CC[C@H]2[C@@H]3CCC4=CC(=O)CC[C@@H]4[C@H]3CC[C@@]21C [Norethindrone Acetate, norethindrone acetate]
2.6 mg drug/g solvent or oil | 3.4 mg drug/g solvent or oil | 6.7 mg drug/g solvent or oil | 20.5 mg drug/g solvent or oil | 9.5 mg drug/g solvent or oil | 4.3 mg drug/g solvent or oil | 1.9 mg drug/g solvent or oil | 0.802 mg drug/g solvent or oil | C#C[C@]1(OC(C)=O)CC[C@H]2[C@@H]3CCC4=CC(=NO)CC[C@@H]4[C@H]3CC[C@@]21CC (mixture of isomers) [Norgestimate, norgestimate]
12.94 mg drug/g solvent or oil | 12.03 mg drug/g solvent or oil | 21.37 mg drug/g solvent or oil | 206 mg drug/g solvent or oil | 12.08 mg drug/g solvent or oil | 18.08 mg drug/g solvent or oil | 5.32 mg drug/g solvent or oil | 2.89 mg drug/g solvent or oil | C#C[C@]1(O)CC[C@H]2[C@@H]3CCc4cc(O)ccc4[C@H]3CC[C@@]21C [Ethinyl estradiol, ethinyl estradiol]
